From US10774080B2, “Pyrimidine compound as JAK kinase inhibitor” (THERAVANCE BIOPHARMA R&D IP, LLC, priority 2017, dated 2020)

Test: in vitro
Assay type: in vitro ADME
Conditions: human, microsomes
Protocol: Assay 17: Human Liver Microsome Assay The objective of this assay was to assess the metabolic stability of test compounds in an in vitro human liver sub-fraction. Human liver microsomes obtained from Bioreclamation-IVT (Baltimore, Md.) were thawed on ice and diluted into 0.1M potassium phosphate buffer pH 7.4 to yield final incubation protein concentrations of 0.1 mg/mL. […] Incubations were conducted at 37° C. temperature and test aliquots were taken at time points 0, 5, 8, 15, 30 and 45 minutes. […] The resulting samples were injected onto an LC-MS/MS system for analysis. For each incubation, the peak area of the analytes in each t0 aliquot was set to 100% and the peak areas from subsequent time point aliquots were converted to percentage of parent compound remaining relative to t0. The percentage of parent compound remaining was converted to natural log scale and plotted versus time in minutes. A linear regression analysis was performed for the initial decline of the parent disappearance profile and a formula for the best-fit line determined. The slope of the resultant line was normalized to protein concentration in mg/mL protein or number of cells/mL and CLint was calculated as follows for liver microsomes: CLint (μL·min^−1·mg^−1)=(Slope×1000)/[protein,mg/mL]

**Q.** Which microsomal CLint at 0.1 μM (pH 7.4, HLM Clint) does the source give for `CCS(=O)(=O)N1[C@@H]2CCC[C@H]1C[C@H](N(C)c1nc(CO)c(F)c(Nc3cc(C)[nH]n3)n1)C2` [Compound (I), (2-(((1R,3s,5S)-9-(ethylsulfonyl)-9-azabicyclo[3.3.1]nonan-3-yl)(methyl)amino)-5-fluoro-6-((5-methyl-1H-pyrazol-3-yl)amino)pyrimidin-4-yl)methanol] here?
**A.** 136 µL/min/mg

**Q.** What about the microsomal CLint at 0.1 μM (pH 7.4, clearance class in human microsomes) of the same molecule?
**A.** > 50 µL/min/mg
